From PubChem BioAssay AID256 (DTP/NCI, 2004)
Where “and” joins values, the source holds several entries; their conditions need not be identical. Identical values can stand only once. Inconclusive results and toxic doses are left out. The calls were made as follows: active = survival T/C of 150% or more; inactive = T/C below 125% in these data.

Tested on: CD2F1 mice, L1210 leukemia ip, survival T/C
Assay: NCI In Vivo Anticancer Drug Screen. Data for tumor model L1210 Leukemia (intraperitoneal) in CD2F1 (CDF1) mice
Conditions: endpoint: mean survival time, higher = longer survival
Outline: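 Compound-dosed mice with transplantable tumor versus matched vehicle controls; endpoint ratio T/C reported.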

[1] = dose: 100.0 mg/kg/injection, schedule: Q01DX001 (ip), vehicle: saline
[2] = dose: 200.0 mg/kg/injection, schedule: Q01DX001 (ip), vehicle: saline
[3] = dose: 400.0 mg/kg/injection, schedule: Q01DX001 (ip), vehicle: saline
[4] = dose: 100.0 mg/kg/injection, schedule: Q01DX001 (ip), vehicle: saline with Tween-80
[5] = dose: 100.0 mg/kg/injection, schedule: Q04DX002 (ip), vehicle: saline with Tween-80
[6] = dose: 200.0 mg/kg/injection, schedule: Q01DX001 (ip), vehicle: saline with Tween-80
[7] = dose: 400.0 mg/kg/injection, schedule: Q01DX001 (ip), vehicle: saline with Tween-80
[8] = dose: 400.0 mg/kg/injection, schedule: Q04DX002 (ip), vehicle: saline with Tween-80
[9] = dose: 100.0 mg/kg/injection, schedule: Q01DX009 (ip), vehicle: saline with Tween-80
[10] = dose: 100.0 mg/kg/injection, schedule: Q04DX003 (ip), vehicle: saline with Tween-80
[11] = dose: 200.0 mg/kg/injection, schedule: Q01DX009 (ip), vehicle: saline with Tween-80
[12] = dose: 200.0 mg/kg/injection, schedule: Q04DX003 (ip), vehicle: saline with Tween-80
[13] = dose: 400.0 mg/kg/injection, schedule: Q01DX009 (ip), vehicle: saline with Tween-80
[14] = dose: 400.0 mg/kg/injection, schedule: Q04DX003 (ip), vehicle: saline with Tween-80

Measured: T/C

N#CC(=C1SCS1)[N+](=O)[O-]
inactive: dose: 0.37 mg/kg/injection, schedule: Q01DX009 (ip), vehicle: saline with Tween-80 101 % of control and 102 % of control | dose: 0.75 mg/kg/injection, schedule: Q01DX009 (ip), vehicle: saline with Tween-80 101 % of control | dose: 1.5 mg/kg/injection, schedule: Q01DX009 (ip), vehicle: saline with Tween-80 100 % of control and 102 % of control | dose: 3.0 mg/kg/injection, schedule: Q01DX009 (ip), vehicle: saline with Tween-80 102 % of control and 104 % of control | dose: 6.0 mg/kg/injection, schedule: Q01DX009 (ip), vehicle: saline with Tween-80 108 % of control | dose: 12.0 mg/kg/injection, schedule: Q01DX009 (ip), vehicle: saline with Tween-80 106 % of control

COC(=O)c1ccccc1NCC(O)C(O)C(O)CO (configuration not stated)
inactive: [1] 98 % of control | [2] 101 % of control | [3] 86 % of control

COc1ccc(CCNC(=O)Cc2ccc3c(c2)OCO3)cc1OC
inactive: [4] 92 % of control | [5] 87 % of control | [6] 93 % of control | dose: 200.0 mg/kg/injection, schedule: Q04DX002 (ip), vehicle: saline with Tween-80 97 % of control | [7] 94 % of control | [8] 93 % of control

CCC1(CC)NC(=O)N(CCOS(C)(=O)=O)C1=O
inactive: dose: 50.0 mg/kg/injection, schedule: Q01DX001 (ip), vehicle: Klucel (hydroxypropylcellulose) (HPC) 110 % of control | dose: 100.0 mg/kg/injection, schedule: Q01DX001 (ip), vehicle: Klucel (hydroxypropylcellulose) (HPC) 93 % of control | dose: 200.0 mg/kg/injection, schedule: Q01DX001 (ip), vehicle: Klucel (hydroxypropylcellulose) (HPC) 93 % of control

[Cl][Pt+2][Cl].[NH-]CC([NH-])CN
inactive: dose: 0.39 mg/kg/injection, schedule: Q04DX003 (ip), vehicle: saline 89 % of control | dose: 0.78 mg/kg/injection, schedule: Q04DX003 (ip), vehicle: saline 97 % of control | dose: 1.56 mg/kg/injection, schedule: Q04DX003 (ip), vehicle: saline 103 % of control | dose: 3.12 mg/kg/injection, schedule: Q04DX003 (ip), vehicle: saline 103 % of control | dose: 6.25 mg/kg/injection, schedule: Q04DX003 (ip), vehicle: saline 111 % of control | dose: 12.5 mg/kg/injection, schedule: Q04DX003 (ip), vehicle: saline 109 % of control

CC1C2CCC(C2)C1OC(=O)c1ccccc1C(=O)O (configuration not stated) (tested in a mixture with another compound)
inactive: dose: 50.0 mg/kg/injection, schedule: Q01DX009 (ip), vehicle: saline with Tween-80 107 % of control | [9] 102 % of control and 93 % of control | [10] 95 % of control | [11] 95 % of control | [12] 95 % of control | [13] 94 % of control

CC(C)(C)N[P+](Cc1ccccc1)(NC(C)(C)C)c1ccccc1
inactive: dose: 12.5 mg/kg/injection, schedule: Q04DX003 (ip), vehicle: saline with Tween-80 90 % of control | dose: 25.0 mg/kg/injection, schedule: Q04DX003 (ip), vehicle: saline with Tween-80 90 % of control

CN1NC(c2ccccc2)C2CN(C3CCCCC3)C(=O)C21O (configuration not stated)
inactive: [10] 92 % of control | [12] 88 % of control | [14] 101 % of control

O=C(O)c1cccc(COc2ccc([N+](=O)[O-])cc2Cl)c1
inactive: [9] 101 % of control | [10] 91 % of control | [11] 93 % of control | [12] 86 % of control | [14] 97 % of control

COCCOC(C)C(=O)C(O)S(=O)(=O)O (configuration not stated)
inactive: dose: 50.0 mg/kg/injection, schedule: Q01DX001 (ip), vehicle: saline 98 % of control | [1] 102 % of control | dose: 100.0 mg/kg/injection, schedule: Q04DX003 (ip), vehicle: saline 103 % of control | [2] 100 % of control | dose: 200.0 mg/kg/injection, schedule: Q04DX003 (ip), vehicle: saline 103 % of control | [3] 100 % of control | dose: 400.0 mg/kg/injection, schedule: Q04DX003 (ip), vehicle: saline 103 % of control

c1ccc(C2COCC2c2ccccc2)cc1 (configuration not stated)
inactive: [4] 86 % of control | [6] 92 % of control | [7] 93 % of control

CCOc1ccc(OCC)c(NC(=O)Nc2ccccc2C)c1
inactive: dose: 25.0 mg/kg/injection, schedule: Q04DX002 (ip), vehicle: saline with Tween-80 88 % of control | dose: 50.0 mg/kg/injection, schedule: Q04DX002 (ip), vehicle: saline with Tween-80 88 % of control | [5] 90 % of control | [8] 90 % of control

CC(C)(C)OC(=O)Nc1cccc(O)c1
inactive: [10] 100 % of control | [12] 96 % of control | [14] 93 % of control

Cc1ccc(S(=O)(=O)N(C)C)cc1NC1=NCCO1
inactive: dose: 50.0 mg/kg/injection, schedule: Q04DX003 (ip), vehicle: saline with Tween-80 95 % of control | [10] 95 % of control | [12] 90 % of control | [14] 90 % of control

COC(=O)C1CC2C(=O)CCCCCCC2C1O (configuration not stated)
inactive: [4] 93 % of control | [6] 101 % of control | [7] 98 % of control

CC(=O)NS(=O)(=O)c1ccc(N=Cc2ccc3c(c2)OCO3)cc1
inactive: [9] 100 % of control | [11] 95 % of control | [13] 94 % of control

O=C(NO)c1ccc(O)c(O)c1O
inactive: dose: 25.0 mg/kg/injection, schedule: Q01DX009 (ip), vehicle: distilled water + Tween-80 110 % of control | dose: 50.0 mg/kg/injection, schedule: Q01DX009 (ip), vehicle: distilled water + Tween-80 108 % of control | dose: 100.0 mg/kg/injection, schedule: Q01DX009 (ip), vehicle: distilled water + Tween-80 116 % of control

Nc1nc(-c2cccc([N+](=O)[O-])c2)c(N=Nc2ccc([N+](=O)[O-])cc2)s1
inactive: [4] 93 % of control | [6] 95 % of control
